US4066753A, “Neomycin and paromomycin derivatives” (Canadian Patents and Development Limited, priority 1976, dated 1978)
In brackets after ≈: the same amount, converted by molar mass. Where two headings read alike, the source gives them in different places.

Assays:
P. mirabilis = assay: IN VITRO antibacterial activity, P. mirabilis; format: cell-based; details: Proteus mirabilis
Experimental: (§1) In the Tables above MIC stands for minimum inhibitory concentration and
(§2) the results were obtained by providing halving dilutions of the test
(§3) compound in nutrient broth (concentrations usually range from 1/10,000 to
(§4) 1/320,000). These solutions are inoculated with the test organism,
(§5) incubated for 24 hours at 37° C and then examined for the presence
(§6) of growth. A test compound found to have a minimum inhibitory
(§7) concentration (MIC) of 1/160,000 is generally considered as a lead.

S. pullorm = assay: IN VITRO antibacterial activity, S. pullorm; format: cell-based
Experimental: as §1, §2, §3, §4, §5, §6, §7

S. pyogenes R = assay: IN VITRO antibacterial activity, S. pyogenes R; format: cell-based; details: Streptococcus pyogenes
Experimental: as §1, §2, §3, §4, §5, §6, §7

S. pyogenes S = assay: IN VITRO antibacterial activity, S. pyogenes S; format: cell-based; details: Streptococcus pyogenes
Experimental: as §1, §2, §3, §4, §5, §6, §7

S. marcesceus = assay: IN VITRO antibacterial activity, S. marcesceus; format: cell-based
Experimental: as §1, §2, §3, §4, §5, §6, §7

K. pneumoniae = assay: IN VITRO antibacterial activity, K. pneumoniae; format: cell-based; details: Klebsiella pneumoniae
Experimental: as §1, §2, §3, §4, §5, §6, §7

S. fecalis = assay: IN VITRO antibacterial activity, S. fecalis; format: cell-based
Experimental: as §1, §2, §3, §4, §5, §6, §7

A. aerogenes = assay: IN VITRO antibacterial activity, A. aerogenes; format: cell-based; details: Klebsiella aerogenes
Experimental: as §1, §2, §3, §4, §5, §6, §7

P. aeruginosa = assay: IN VITRO antibacterial activity, P. aeruginosa; format: cell-based; details: Pseudomonas aeruginosa
Experimental: as §1, §2, §3, §4, §5, §6, §7

E. coli B996 = assay: IN VITRO antibacterial activity, E. coli B996 (resistant to Kanamycin and paromomycin); format: cell-based; details: Escherichia coli, nutrient broth, 24 hours at 37° C
Experimental: as §1, §2, §3, §4, §5, §6, §7

E. coli 198 = assay: IN VITRO antibacterial activity, E. coli 198; format: cell-based
Experimental: as §1, §2, §3, §4, §5, §6, §7

P. aeruginosa 377 = assay: IN VITRO antibacterial activity against resistant organisms, P. aeruginosa 377; format: cell-based; details: Pseudomonas aeruginosa; resistant organism P. aeruginosa 377; nutrient broth, 24 hours at 37° C; read-out: MIC
Experimental: as §1, §2, §3, §4, §5, §6, §7

S. pyogenes S B352 = assay: IN VITRO antibacterial activity, S. pyogenes S B352; format: cell-based; details: Streptococcus pyogenes, SB352; S. pyogenes S B352; nutrient broth, 24 hours at 37° C; read-out: MIC
Experimental: as §1, §2, §3, §4, §5, §6, §7

Pr. mirabilis 360 = assay: IN VITRO antibacterial activity, Pr. mirabilis 360; format: cell-based; details: Proteus mirabilis; Pr. mirabilis 360; nutrient broth, 24 hours at 37° C; read-out: MIC
Experimental: as §1, §2, §3, §4, §5, §6, §7

Pr. vulgaris 316 = assay: IN VITRO antibacterial activity, Pr. vulgaris 316; format: cell-based; details: Proteus vulgaris; Pr. vulgaris 316; nutrient broth, 24 hours at 37° C; read-out: MIC
Experimental: as §1, §2, §3, §4, §5, §6, §7

[1] = system: strains of E. Coli resistant to neomycin and paromomycin; assay: Antibacterial activity against resistant E. Coli; format: cell-based
Experimental: as §1, §2, §3, §4, §5, §6, §7

in vivo = details: mouse, iv, in mice (i.v), acute toxicity
[2] = system: strains of P. Aeruginosa resistant to neomycin B and paromomycin I; assay: Antibacterial activity against resistant P. Aeruginosa; format: cell-based
Experimental: as §1, §2, §3, §4, §5, §6, §7

S. fecalis 353 = assay: IN VITRO antibacterial activity, S. fecalis 353; format: cell-based; details: S. fecalis 353; nutrient broth, 24 hours at 37° C; read-out: MIC
Experimental: as §1, §2, §3, §4, §5, §6, §7

S. pullorum 358 = assay: IN VITRO antibacterial activity, S. pullorum 358; format: cell-based; details: Salmonella enterica; S. pullorum 358; nutrient broth, 24 hours at 37° C; read-out: MIC
Experimental: as §1, §2, §3, §4, §5, §6, §7

[3] = system: Kl. pneumoniae 855 (ATCC 10081); assay: IN VITRO antibacterial activity, Kl. pneumoniae 855 (ATCC 10081); format: cell-based; details: Klebsiella pneumoniae, ATCC10081, nutrient broth, 24 hours at 37° C
Experimental: as §1, §2, §3, §4, §5, §6, §7

E. Coli 198 (ATCC 1/229) = assay: IN VITRO antibacterial activity, E. Coli 198 (ATCC 1/229); format: cell-based; details: Escherichia coli, ATCC1; E. Coli 198 (ATCC 1/229); nutrient broth, 24 hours at 37° C; read-out: MIC
Experimental: as §1, §2, §3, §4, §5, §6, §7

S. pyogenes R 353 = assay: IN VITRO antibacterial activity, S. pyogenes R 353; format: cell-based; details: Streptococcus pyogenes, R353; S. pyogenes R 353; nutrient broth, 24 hours at 37° C; read-out: MIC
Experimental: as §1, §2, §3, §4, §5, §6, §7

E. coli B989 = assay: IN VITRO antibacterial activity against resistant organisms, E. coli B989; format: cell-based; details: Escherichia coli; resistant organism E. coli B989; nutrient broth, 24 hours at 37° C; read-out: MIC
Experimental: as §1, §2, §3, §4, §5, §6, §7

A. aerogenes 357 = assay: IN VITRO antibacterial activity, A. aerogenes 357; format: cell-based; details: Klebsiella aerogenes; A. aerogenes 357; nutrient broth, 24 hours at 37° C; read-out: MIC
Experimental: as §1, §2, §3, §4, §5, §6, §7

P. aeruginosa 87442 = assay: IN VITRO antibacterial activity against resistant organisms, P. aeruginosa 87442; format: cell-based; details: Pseudomonas aeruginosa; resistant organism P. aeruginosa 87442; nutrient broth, 24 hours at 37° C; read-out: MIC
Experimental: as §1, §2, §3, §4, §5, §6, §7

P. aeruginosa 359 = assay: IN VITRO antibacterial activity, P. aeruginosa 359; format: cell-based; details: Pseudomonas aeruginosa; P. aeruginosa 359; nutrient broth, 24 hours at 37° C; read-out: MIC
Experimental: as §1, §2, §3, §4, §5, §6, §7

E. coli B1002 = assay: IN VITRO antibacterial activity against resistant organisms, E. coli B1002; format: cell-based; details: Escherichia coli; resistant organism E. coli B1002; nutrient broth, 24 hours at 37° C; read-out: MIC
Experimental: as §1, §2, §3, §4, §5, §6, §7

[4] = system: S. marcesceus 854 (ATCC → 103); assay: IN VITRO antibacterial activity, S. marcesceus 854 (ATCC → 103); format: cell-based; details: S. marcesceus 854 (ATCC → 103); nutrient broth, 24 hours at 37° C; read-out: MIC
Experimental: as §1, §2, §3, §4, §5, §6, §7

**Q.** With `NC[C@@H]1O[C@H](O[C@H]2[C@@H](O)[C@H](O[C@@H]3[C@@H](O)[C@H](N)C[C@H](N)[C@H]3O[C@H]3O[C@H](CO)[C@@H](O)[C@H](O)[C@H]3N)O[C@@H]2CO)[C@H](N)[C@@H](O)[C@@H]1O` [Paromomycin] as the compound, how does the MIC (P. mirabilis; 24 h) read?
**A.** > 0.2 µg/mL

**Q.** What about the MIC (S. pullorm; 24 h) of the same compound?
**A.** > 0.2 µg/mL

**Q.** And the MIC (S. pyogenes R; 24 h)?
**A.** < 0.2 µg/mL

**Q.** What about the MIC (S. pyogenes S; 24 h) of the same compound?
**A.** < 0.2 µg/mL

**Q.** What about the MIC (S. marcesceus; 24 h) of the same compound?
**A.** 0.4 µg/mL (≈ 0.65 µM)

**Q.** What about the MIC (K. pneumoniae; 24 h) of the same compound?
**A.** > 0.2 µg/mL

**Q.** And the MIC (S. fecalis; 24 h)?
**A.** 1.6 µg/mL (≈ 2.6 µM)

**Q.** And the MIC (A. aerogenes; 24 h)?
**A.** > 0.2 µg/mL

**Q.** What about the MIC (P. aeruginosa; 24 h) of the same compound?
**A.** 0.8 µg/mL (≈ 1.3 µM)

**Q.** What about the MIC (E. coli B996) of the same compound?
**A.** > 100 µg/mL

**Q.** What about the MIC (E. coli 198; Escherichia coli, 198, 24 h) of the same compound?
**A.** 0.4 µg/mL (≈ 0.65 µM)

**Q.** What does the source list for `NC[C@@H]1O[C@H](O[C@H]2[C@@H](O)[C@H](O[C@@H]3[C@@H](O)[C@H](N)C[C@H](N)[C@H]3O[C@H]3O[C@H](CN)[C@@H](O)[C@H](O)[C@H]3N)O[C@@H]2CN)[C@H](N)[C@@H](O)[C@@H]1O` [5"-Amino-5"-deoxyneomycin B, 5"-amino-5"-deoxyneomycin B]?
**A.** MIC (P. aeruginosa 377): 1.6 µg/mL (≈ 2.61 µM); MIC (S. pyogenes S B352): < 0.1 µg/mL; MIC (Pr. mirabilis 360): 0.8 µg/mL (≈ 1.3 µM); MIC (Pr. vulgaris 316): 0.8 µg/mL (≈ 1.3 µM); antibacterial activity against resistant E. Coli [1]: particularly effective; LD50 (in vivo): 60 to 80 mg/kg; antibacterial activity against resistant P. Aeruginosa [2]: particularly effective; MIC (S. fecalis 353): 0.8 µg/mL (≈ 1.3 µM); MIC (S. pullorum 358): 0.4 µg/mL (≈ 0.652 µM); MIC [3]: 0.4 µg/mL (≈ 0.652 µM); MIC (E. Coli 198 (ATCC 1/229)): 0.8 µg/mL (≈ 1.3 µM); MIC (S. pyogenes R 353): < 0.1 µg/mL; MIC (E. coli B989): 1.6 µg/mL (≈ 2.61 µM); MIC (A. aerogenes 357): 0.8 µg/mL (≈ 1.3 µM); MIC (P. aeruginosa 87442): 0.8 µg/mL (≈ 1.3 µM); MIC (P. aeruginosa 359): 1.6 µg/mL (≈ 2.61 µM); MIC (E. coli B1002): 3.2 µg/mL (≈ 5.21 µM); MIC [4]: 0.4 µg/mL (≈ 0.652 µM)

**Q.** For `NC[C@@H]1O[C@H](O[C@H]2[C@@H](O)[C@H](O[C@@H]3[C@@H](O)[C@H](N)C[C@H](N)[C@H]3O[C@H]3O[C@H](CN)[C@@H](O)[C@H](O)[C@H]3N)O[C@@H]2CO)[C@H](N)[C@@H](O)[C@@H]1O` [Neomycin], which MIC (P. aeruginosa 377) is on record?
**A.** 0.4 µg/mL (≈ 0.651 µM)

**Q.** What about the MIC (E. coli B989) of the same compound?
**A.** 1.6 µg/mL (≈ 2.6 µM)

**Q.** What about the MIC (P. aeruginosa 87442) of the same compound?
**A.** < 0.2 µg/mL

**Q.** And the MIC (E. coli B1002)?
**A.** 50 µg/mL (≈ 81.3 µM)

**Q.** With `NC[C@@H]1O[C@H](O[C@H]2[C@@H](O)[C@H](O[C@@H]3[C@@H](O)[C@H](N)C[C@H](N)[C@H]3O[C@H]3O[C@H](CO)[C@@H](O)[C@H](O)[C@H]3N)O[C@@H]2CN)[C@H](N)[C@@H](O)[C@@H]1O` [5"-amino-5"-deoxyparomomycin I] as the compound, how does the MIC (P. mirabilis; P. mirabilis, nutrient broth, 24 hours at 37° C, read-out: MIC) read?
**A.** 1.6 µg/mL (≈ 2.6 µM)

**Q.** What about the MIC (S. pullorm; S. pullorm, nutrient broth, 24 hours at 37° C, read-out: MIC) of the same compound?
**A.** 0.8 µg/mL (≈ 1.3 µM)

**Q.** And the “antibacterial activity against resistant E. Coli” value [1]?
**A.** particularly effective

**Q.** What about the “antibacterial activity against resistant P. Aeruginosa” value [2] of the same compound?
**A.** particularly effective

**Q.** What about the MIC (S. pyogenes R; S. pyogenes R, nutrient broth, 24 hours at 37° C, read-out: MIC) of the same compound?
**A.** 0.4 µg/mL (≈ 0.651 µM)

**Q.** What about the MIC (S. pyogenes S; S. pyogenes S, nutrient broth, 24 hours at 37° C, read-out: MIC) of the same compound?
**A.** < 0.2 µg/mL

**Q.** And the MIC (S. marcesceus; S. marcesceus, nutrient broth, 24 hours at 37° C, read-out: MIC)?
**A.** 0.8 µg/mL (≈ 1.3 µM)

**Q.** And the MIC (K. pneumoniae; K. pneumoniae, nutrient broth, 24 hours at 37° C, read-out: MIC)?
**A.** 0.8 µg/mL (≈ 1.3 µM)

**Q.** What about the MIC (S. fecalis; S. fecalis, nutrient broth, 24 hours at 37° C, read-out: MIC) of the same compound?
**A.** 6.4 µg/mL (≈ 10.4 µM)

**Q.** What about the MIC (A. aerogenes; A. aerogenes, nutrient broth, 24 hours at 37° C, read-out: MIC) of the same compound?
**A.** 1.6 µg/mL (≈ 2.6 µM)

**Q.** What about the MIC (P. aeruginosa; P. aeruginosa, nutrient broth, 24 hours at 37° C, read-out: MIC) of the same compound?
**A.** 12.5 µg/mL (≈ 20.3 µM)

**Q.** And the MIC (E. coli B996)?
**A.** 12.5 µg/mL (≈ 20.3 µM)

**Q.** What about the MIC (E. coli 198; Escherichia coli, E. coli 198, nutrient broth, 24 hours at 37° C, read-out: MIC) of the same compound?
**A.** 6.4 µg/mL (≈ 10.4 µM)
